Measured values as given in ChEMBL document CHEMBL4811258, “Potent Antimalarials with Development Potential Identified by Structure-Guided Computational Optimization of a Pyrrole-Based Dihydroorotate Dehydrogenase Inhibitor Series” (J Med Chem, 2021).
Active and inactive are the calls of the source. No cut-off for these calls is given here.

Experiments:
Plasmodium falciparum [1] = assay: Antiplasmodial activity against asexual blood stage Plasmodium falciparum D10 expressing yeast DHODH infected in human erythrocytes assessed as parasite killing; assay type: functional, organism-based
[2] = AUC (0 to infinity) in Swiss mouse at 24 mg/kg, po measured up to 24 hrs by LC-MS analysis; assay type: ADME, organism-based; design: route oral, dose 24 mg/kg, time <=24; conditions: in vivo
[3] = Plasma clearance in Sprague-Dawley rat at […], iv measured up to 24 hrs; assay type: ADME, organism-based; conditions: dose 1.8 mg/kg
Plasmodium falciparum [4] = assay: Antiplasmodial activity against Plasmodium falciparum 3D7 Uganda infected in human erythrocytes assessed as parasite killing using albumax media measured after 72 hrs by SYBR Green assay; assay type: functional, organism-based; conditions: 3D7, 72 h
[5] = Half life in Swiss mouse at 24 mg/kg, po measured up to 24 hrs by LC-MS analysis; assay type: ADME, organism-based; conditions: in vivo
[6] = Volume of distribution at steady state in Swiss mouse at […], iv measured up to 24 hrs by LC-MS analysis; assay type: ADME, organism-based; conditions: in vivo, dose 2.3 mg/kg, read-out: Vdss
Plasmodium falciparum [7] = assay: Antimalarial activity against Plasmodium falciparum 3D70087/N9 infected in orally dosed NOD-SCID IL2Rgamma null mouse assessed as parasitemia level administered days after 3 post infection once daily for 4 days measured on day 7 by flow cytometry; assay type: functional; conditions: time 4 day
in vivo = conditions: Sprague-Dawley, rat, po, 17 mg/kg
[8] = molecular target: Dihydroorotate dehydrogenase (quinone), mitochondrial (Mus musculus, UniProt O35435); assay: Inhibition of mouse DHODH up to 100 uM; conditions: up to 100 µM
Cytochrome P450 2C8 = molecular target: T1, Cytochrome P450 2C8 (Homo sapiens, UniProt P10632)
T1 sequence (P10632 whole entry): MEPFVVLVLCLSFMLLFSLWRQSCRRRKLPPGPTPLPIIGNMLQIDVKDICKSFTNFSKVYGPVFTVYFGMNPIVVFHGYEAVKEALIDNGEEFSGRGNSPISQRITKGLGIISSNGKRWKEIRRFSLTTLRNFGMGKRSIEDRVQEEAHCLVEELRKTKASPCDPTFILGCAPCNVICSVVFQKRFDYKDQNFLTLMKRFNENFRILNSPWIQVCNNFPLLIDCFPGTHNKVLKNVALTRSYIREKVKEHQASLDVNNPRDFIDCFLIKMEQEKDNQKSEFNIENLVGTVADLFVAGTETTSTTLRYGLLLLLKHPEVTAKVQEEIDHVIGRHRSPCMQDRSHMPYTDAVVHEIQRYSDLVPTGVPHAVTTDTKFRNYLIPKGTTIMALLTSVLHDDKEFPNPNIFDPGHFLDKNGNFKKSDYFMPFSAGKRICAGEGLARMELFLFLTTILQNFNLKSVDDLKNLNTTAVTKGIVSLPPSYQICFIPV

[9] = AUC (0 to infinity) in Swiss mouse at […], po measured up to 24 hrs by LC-MS analysis; assay type: ADME, organism-based; design: route oral, dose 2.6 mg/kg, time <=24; conditions: in vivo
HepG2 = assay: Cytotoxicity against human HepG2 cells; assay type: cell-based
[10] = Half life in Swiss mouse at […], po measured up to 24 hrs by LC-MS analysis; assay type: ADME, organism-based; conditions: in vivo, dose 2.6 mg/kg
[11] = Apparent half life in Sprague-Dawley rat at 17 mg/kg, po measured up to 24 hrs; assay type: ADME, organism-based; conditions: in vivo, read-out: t1/2(app) (converted)
[12] = Oral bioavailability in Sprague-Dawley rat at 17 mg/kg measured up to 24 hrs; assay type: ADME, organism-based; conditions: in vivo
Plasmodium falciparum [13] = assay: Antimalarial activity against Plasmodium falciparum 3D70087/N9 infected in orally dosed NOD-SCID IL2Rgamma null mouse assessed as parasitemia level in human red blood cells at 50 mg/kg, po administered days after 1 day post infection twice daily for 6 days measured on day 7 by flow cytometry; assay type: functional, organism-based; conditions: time 6.0 day
[14] = Cmax in Sprague-Dawley rat at 17 mg/kg, po measured up to 24 hrs; assay type: ADME, organism-based; design: route oral, dose 17 mg/kg, time <=24; conditions: in vivo
Plasmodium falciparum [15] = assay: Antiplasmodial activity against Plasmodium falciparum Dd2 Uganda infected in human erythrocytes assessed as parasite killing using albumax media measured after 72 hrs by SYBR Green assay; assay type: functional, organism-based; conditions: Dd2, 72 h
[16] = Volume of distribution at steady state in Sprague-Dawley rat at […], iv measured up to 24 hrs; assay type: ADME, organism-based; conditions: in vivo, dose 1.8 mg/kg, read-out: Vdss
[17] = Oral bioavailability in Swiss mouse at […] measured up to 24 hrs by LC-MS analysis; assay type: ADME, organism-based; conditions: in vivo, dose 2.6 mg/kg
[18] = Inhibition of dog DHODH up to 100 uM; design: species or system Canis lupus familiaris; conditions: up to 100 µM
[19] = Binding affinity to microsome (unknown origin); assay type: ADME; conditions: microsomes
[20] = Cmax in Swiss mouse at […], po measured up to 24 hrs by LC-MS analysis; assay type: ADME, organism-based; design: route oral, dose 2.6 mg/kg, time <=24; conditions: in vivo
Cytochrome P450 3A4 = Cytochrome P450 3A4 (Homo sapiens, UniProt P08684)
Plasmodium falciparum [21] = system: Plasmodium falciparum
[22] = molecular target: Dihydroorotate dehydrogenase (quinone), mitochondrial (Rattus norvegicus, UniProt Q63707); assay: Inhibition of rat DHODH up to 100 uM; conditions: up to 100 µM
[23] = human, plasma
[24] = Plasma clearance in Swiss mouse at […], iv measured up to 24 hrs by LC-MS analysis; assay type: ADME, organism-based; conditions: dose 2.3 mg/kg
[25] = AUC (0 to infinity) in Sprague-Dawley rat at 17 mg/kg, po measured up to 24 hrs; assay type: ADME, organism-based; design: route oral, dose 17 mg/kg, time <=24; conditions: in vivo
[26] = Unbound intrinsic clearance in mouse liver microsomes at 1 uM measured up to 4 hrs by LC-MS analysis; assay type: ADME, Microsome
[27] = human, caco-2, pH 7.4
[28] = Oral bioavailability in Swiss mouse at 24 mg/kg measured up to 24 hrs by LC-MS analysis; assay type: ADME, organism-based; conditions: in vivo
[29] = rat, in vivo, po, 10 mg/kg, 24 h
[30] = Cmax in Swiss mouse at 24 mg/kg, po measured up to 24 hrs by LC-MS analysis; assay type: ADME, organism-based; design: route oral, dose 24 mg/kg, time <=24; conditions: in vivo
[31] = rat, plasma
Plasmodium falciparum [32] = assay: Antimalarial activity against Plasmodium falciparum 3D70087/N9 infected in NOD-SCID IL2Rgamma null mouse assessed as parasitemia level at 50 mg/kg, po administered days after 3 post infection once daily for 4 days measured on day 7 by flow cytometry; assay type: functional, organism-based; conditions: time 4.0 day
[33] = rat, in vivo, po, 10 mg/kg, 24 h; remark: listed apart in the source
Plasmodium falciparum [34] = assay: Antiplasmodial activity against asexual blood stage Plasmodium falciparum D10 expressing yeast DHODH infected in human erythrocytes assessed as parasite killing in presence of proguanil; assay type: functional, organism-based
[35] = mouse, plasma
[36] = rat, in vivo, po, 10 mg/kg, 24 h; remark: listed apart in the source
[37] = Intrinsic clearance in mouse liver microsomes at 1 uM measured up to 4 hrs by LC-MS analysis; assay type: ADME, Microsome
L1210 = assay: Cytotoxicity against mouse L1210 cells; assay type: cell-based

Chain of Cytochrome P450 3A4 (P08684 whole entry): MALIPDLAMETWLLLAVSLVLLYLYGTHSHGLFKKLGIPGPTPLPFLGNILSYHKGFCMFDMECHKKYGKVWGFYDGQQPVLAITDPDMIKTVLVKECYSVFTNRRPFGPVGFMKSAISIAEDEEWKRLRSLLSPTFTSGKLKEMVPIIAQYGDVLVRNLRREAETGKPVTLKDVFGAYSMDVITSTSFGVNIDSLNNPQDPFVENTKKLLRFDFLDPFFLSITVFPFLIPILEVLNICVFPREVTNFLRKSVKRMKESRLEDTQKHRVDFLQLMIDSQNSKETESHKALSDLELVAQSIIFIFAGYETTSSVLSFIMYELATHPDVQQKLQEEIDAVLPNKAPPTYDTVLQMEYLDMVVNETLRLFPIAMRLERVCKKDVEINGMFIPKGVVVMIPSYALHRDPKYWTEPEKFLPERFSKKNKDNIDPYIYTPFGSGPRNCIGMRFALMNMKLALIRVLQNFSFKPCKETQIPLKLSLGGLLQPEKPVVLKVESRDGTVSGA
Chain of Dihydroorotate dehydrogenase (quinone), mitochondrial (Mus musculus, UniProt O35435) (O35435 whole entry): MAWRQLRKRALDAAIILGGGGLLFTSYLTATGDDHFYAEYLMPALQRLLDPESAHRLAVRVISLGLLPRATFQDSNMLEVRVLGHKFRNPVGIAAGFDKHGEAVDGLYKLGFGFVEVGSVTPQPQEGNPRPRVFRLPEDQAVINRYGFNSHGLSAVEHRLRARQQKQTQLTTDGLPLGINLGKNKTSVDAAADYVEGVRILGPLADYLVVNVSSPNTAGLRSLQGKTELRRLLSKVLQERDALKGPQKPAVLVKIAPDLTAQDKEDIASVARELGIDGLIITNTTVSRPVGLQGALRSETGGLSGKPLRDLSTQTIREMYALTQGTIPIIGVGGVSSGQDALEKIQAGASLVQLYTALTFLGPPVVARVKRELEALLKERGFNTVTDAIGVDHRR
Chain of Dihydroorotate dehydrogenase (quinone), mitochondrial (Rattus norvegicus, UniProt Q63707) (Q63707 whole entry): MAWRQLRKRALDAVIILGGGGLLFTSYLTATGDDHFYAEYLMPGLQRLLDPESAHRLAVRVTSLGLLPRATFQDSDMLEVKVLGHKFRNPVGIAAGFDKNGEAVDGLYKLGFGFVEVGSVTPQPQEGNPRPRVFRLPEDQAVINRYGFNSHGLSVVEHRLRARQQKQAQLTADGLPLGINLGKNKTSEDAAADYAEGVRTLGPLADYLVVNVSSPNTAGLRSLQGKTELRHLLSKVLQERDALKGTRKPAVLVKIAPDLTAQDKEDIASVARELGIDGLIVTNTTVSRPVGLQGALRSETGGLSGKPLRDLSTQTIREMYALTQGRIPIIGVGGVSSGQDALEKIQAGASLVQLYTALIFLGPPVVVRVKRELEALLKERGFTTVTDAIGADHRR

SMILES: Cc1c(C2(c3ccc(C(F)(F)F)nc3)CC2)c[nH]c1C(=O)NC(C)c1nc[nH]n1 (stereo in doubt; form 1)
- EC50 (Plasmodium falciparum [1]): > 10000 nM
- AUC [2]: 250 µM·h
- clearance at 24 h [3]: 6.8 mL/min/kg
- EC50 (Plasmodium falciparum [4]): 7.5 nM
- t1/2 [5]: 4.5 h
- Vd at 24 h [6]: 1.3 L/kg
- ED50 (Plasmodium falciparum [7]): 26 mg/kg
- Tmax at 24 h (in vivo): 2.5 h
- inhibition (INH) [8]: Not Active
- IC50 (Cytochrome P450 2C8): > 20000 nM
- AUC(0-inf) at 24 h [9]: 29 µM·h
- Activity (HepG2): Non-Toxic
- half-life at 24 h [10]: 3.4 h
- half-life [11]: 3.7 h
- bioavailability [12]: 110%
- Activity (Plasmodium falciparum [13]): Active
- Cmax [14]: 14 µM
- EC50 (Plasmodium falciparum [15]): 6.9 nM
- Vd at 24 h [16]: 2.1 L/kg
- bioavailability at 24 h [17]: 74%
- inhibition (INH) [18]: Not Active
- Activity [19]: 34.2%
- Cmax at 24 h [20]: 2.6 µM
- TDI (Cytochrome P450 3A4): Not Active
- EC50 (Plasmodium falciparum [21]): 170 nM
- inhibition (INH) [22]: Not Active
- PPB [23]: 92.8%
- clearance at 24 h [24]: 2.8 mL/min/kg
- AUC(0-inf) [25]: 120 µM·h
- CL free [26]: 17 µL/min/mg
- Papp [27]: 70 10^-6 cm/s
- F [28]: 70%
- t1/2(app) [29]: 5.9 h
- Cmax [30]: 20 µM
- PPB [31]: 94.3%
- Activity (Plasmodium falciparum [32]): Active
- F [33]: 77%
- EC50 (Plasmodium falciparum [34]): > 10000 nM
- PPB [35]: 92.1%
- AUC [36]: 47 µM·h
- Intrinsic clearance [37]: 11 µL/min/mg
- Activity (L1210): Non-Toxic
